Converted amounts (≈) assume the structure as drawn. Read-outs that look alike come from different tables or passages of the source.
How the values were obtained:
Type in all cases: cell-based
K. pneumoniae = assay: Broth microdilution MIC, K. pneumoniae
[1] = system: Vancomycin Resistant Staphylococcus aureus (VRSA); assay: Broth microdilution MIC/MBC, VRSA; details: for MBC / MIC: VRSA
Klebsiella pneumoniae = assay: MIC with/without sub-MIC colistin, Klebsiella pneumoniae
Procedure, shortened: (§1)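 Compounds plus sub-inhibitory colistin or PMBN; MIC against Gram-negatives, with control antibiotics in parallel.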

Salmonella Typhimurium = assay: MIC with/without PMBN, Salmonella Typhimurium
Procedure, shortened: as §1

[2] = system: methicillin-resistant Staphylococcus aureus (MRSA); assay: Broth microdilution MIC/MBC, MRSA
[3] = system: vancomycin resistant enterococci (VRE) E. faecalis; assay: Broth microdilution MIC/MBC, VRE E. faecalis; details: for MIC: read-out: MIC
P. aeruginosa = assay: Broth microdilution MIC, P. aeruginosa; details: Pseudomonas aeruginosa
B. licheniformis = assay: Broth microdilution MIC/MBC, B. licheniformis; details: Bacillus licheniformis; for MBC: read-out: MBC; for MIC: read-out: MIC
Pseudomonas aeruginosa [4] = assay: MIC with/without PMBN, Pseudomonas aeruginosa
Procedure, shortened: as §1

[5] = system: vancomycin resistant enterococci (VRE) E. faecium; assay: Broth microdilution MIC/MBC, VRE E. faecium; details: for MIC: read-out: MIC
Pseudomonas aeruginosa [6] = assay: MIC with/without sub-MIC colistin, Pseudomonas aeruginosa
Procedure, shortened: as §1

Clostridium difficile = assay: MIC against Clostridium difficile, anaerobic broth dilution; details: Clostridioides difficile
Procedure, shortened: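 Clinical C. difficile isolates grown anaerobically 48 h at 37 °C, suspended to 0.5 McFarland and diluted 1:300 in pre-reduced supplemented Brain Heart Infusion broth. Compounds serially diluted; plates incubated anaerobically at 37 °C for 48 h. MIC = lowest concentration with no visible growth.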

Acinetobacter baumannii = assay: MIC with/without PMBN, Acinetobacter baumannii
Procedure, shortened: as §1

[7] = E. faecalis NR31972 Strain SF 28073
[8] = NCIB9375, B. licheniformis Gibson 46 (NCIB 9375) NR-2494
[9] = NRS712, B. licheniformis NRS 712 NR-2499
[10] = E. faecium HM 968 Strain ERV102
[11] = E. faecium NR31914 Strain E0120
[12] = E. faecium Patient #1–1 NR-31903

In the case of `O=C(O)[C@H](Cc1ccccc1)N1C(=O)/C(=C/c2cccc(Cc3ccc(Cl)c(Cl)c3)c2)SC1=S` [Rh 3], the MIC (K. pneumoniae; K. pneumoniae NR-15417) is reported as >128 µM, the MIC (K. pneumoniae; Klebsiella pneumoniae) is reported as > 128 µM and the MIC50 ([1]; 15 VRSA strains, read-out: MIC 50) is reported as 8 µM (≈ 4.23 µg/mL). The MIC90 ([1]; 15 VRSA strains, read-out: MIC 90) was 8 µM (≈ 4.23 µg/mL), the MBC ([1]; VRSA 1, read-out: MBC) was 32 µM (≈ 16.9 µg/mL) and the MIC ([1]; VRSA 1, read-out: MIC) was 8 µM (≈ 4.23 µg/mL). The MBC ([1]; VRSA 2, read-out: MBC) was 16 µM (≈ 8.46 µg/mL), the MIC ([1]; VRSA 2, read-out: MIC) was 8 µM (≈ 4.23 µg/mL) and the MBC ([1]; VRSA 3a, read-out: MBC) was 16 µM (≈ 8.46 µg/mL). It also gave an MIC ([1]; VRSA 3a, read-out: MIC) of 16 µM (≈ 8.46 µg/mL), an MBC ([1]; VRSA 3b, read-out: MBC) of 8 µM (≈ 4.23 µg/mL) and an MIC ([1]; VRSA 3b, read-out: MIC) of 8 µM (≈ 4.23 µg/mL). For the same compound, the MBC ([1]; VRSA 4, read-out: MBC) was 32 µM (≈ 16.9 µg/mL), the MIC ([1]; VRSA 4, read-out: MIC) was 8 µM (≈ 4.23 µg/mL) and the MBC ([1]; VRSA 5, read-out: MBC) was 64 µM (≈ 33.8 µg/mL). It also gave an MIC ([1]; VRSA 5, read-out: MIC) of 8 µM (≈ 4.23 µg/mL), an MBC ([1]; VRSA 6, read-out: MBC) of 16 µM (≈ 8.46 µg/mL) and an MIC ([1]; VRSA 6, read-out: MIC) of 8 µM (≈ 4.23 µg/mL). It also gave an MBC ([1]; VRSA 7, read-out: MBC) of 32 µM (≈ 16.9 µg/mL), an MIC ([1]; VRSA 7, read-out: MIC) of 8 µM (≈ 4.23 µg/mL) and an MBC ([1]; VRSA 8, read-out: MBC) of 16 µM (≈ 8.46 µg/mL). For the same compound, the MIC ([1]; VRSA 8, read-out: MIC) was 8 µM (≈ 4.23 µg/mL), the MBC ([1]; VRSA 9, read-out: MBC) was 16 µM (≈ 8.46 µg/mL) and the MIC ([1]; VRSA 9, read-out: MIC) was 8 µM (≈ 4.23 µg/mL). For the same compound, the MBC ([1]; VRSA 10, read-out: MBC) was 64 µM (≈ 33.8 µg/mL), the MIC ([1]; VRSA 10, read-out: MIC) was 8 µM (≈ 4.23 µg/mL) and the MBC ([1]; VRSA 11a, read-out: MBC) was 16 µM (≈ 8.46 µg/mL). The MIC ([1]; VRSA 11a, read-out: MIC) was 8 µM (≈ 4.23 µg/mL), the MBC ([1]; VRSA 11b, read-out: MBC) was 16 µM (≈ 8.46 µg/mL) and the MIC ([1]; VRSA 11b, read-out: MIC) was 8 µM (≈ 4.23 µg/mL). It also gave an MBC ([1]; VRSA 12, read-out: MBC) of 32 µM (≈ 16.9 µg/mL), an MIC ([1]; VRSA 12, read-out: MIC) of 8 µM (≈ 4.23 µg/mL) and an MBC ([1]; VRSA 13, read-out: MBC) of 32 µM (≈ 16.9 µg/mL). For the same compound, the MIC ([1]; VRSA 13, read-out: MIC) was 8 µM (≈ 4.23 µg/mL), the MIC (Klebsiella pneumoniae; Klebsiella pneumoniae ATCC BAA 2146, colistin (+) […]) was >64 µM and the MIC (Klebsiella pneumoniae; Klebsiella pneumoniae, BAA2146) was > 128 µM. For the same compound, the MIC (Salmonella Typhimurium; Salmonella Typhimurium ATCC 700720, PMBN (+) 4 μg/mL, read-out: MIC) was >128 µM, the MIC (Salmonella Typhimurium; Salmonella enterica, ATCC 700720 / TYPHIMURIUM) was > 128 µM and the MIC50 ([2]; 11 MRSA strains) was 8 µM (≈ 4.23 µg/mL). For the same compound, the MIC90 ([2]; 11 MRSA strains) was 16 µM (≈ 8.46 µg/mL), the MBC ([2]; MRSA NRS 1) was 8 µM (≈ 4.23 µg/mL) and the MIC ([2]; MRSA NRS 1) was 8 µM (≈ 4.23 µg/mL). The MBC ([2]; MRSA NRS 19) was 8 µM (≈ 4.23 µg/mL), the MIC ([2]; MRSA NRS 19) was 8 µM (≈ 4.23 µg/mL) and the MBC ([2]; MRSA NRS 37) was 16 µM (≈ 8.46 µg/mL). The MIC ([2]; MRSA NRS 37) was 8 µM (≈ 4.23 µg/mL), the MBC ([2]; MRSA NRS 107) was 32 µM (≈ 16.9 µg/mL) and the MIC ([2]; MRSA NRS 107) was 8 µM (≈ 4.23 µg/mL). For the same compound, the MBC ([2]; MRSA NRS 119) was 8 µM (≈ 4.23 µg/mL), the MIC ([2]; MRSA NRS 119) was 8 µM (≈ 4.23 µg/mL) and the MBC ([2]; MRSA NRS 382) was 32 µM (≈ 16.9 µg/mL). The MIC ([2]; MRSA NRS 382) was 16 µM (≈ 8.46 µg/mL), the MBC ([2]; MRSA NRS 383) was 8 µM (≈ 4.23 µg/mL) and the MIC ([2]; MRSA NRS 383) was 8 µM (≈ 4.23 µg/mL). For the same compound, the MBC ([2]; MRSA NRS 384) was 16 µM (≈ 8.46 µg/mL), the MIC ([2]; MRSA NRS 384) was 16 µM (≈ 8.46 µg/mL) and the MBC ([2]; MRSA NRS 385) was 16 µM (≈ 8.46 µg/mL). It also gave an MIC ([2]; MRSA NRS 385) of 16 µM (≈ 8.46 µg/mL), an MBC ([2]; MRSA NRS 386) of 32 µM (≈ 16.9 µg/mL) and an MIC ([2]; MRSA NRS 386) of 8 µM (≈ 4.23 µg/mL). The MBC ([2]; MRSA NRS 387) was 32 µM (≈ 16.9 µg/mL), the MIC ([2]; MRSA NRS 387) was 16 µM (≈ 8.46 µg/mL) and the MBC ([3]; E. faecalis ERV103 HM-934) was 8 µM (≈ 4.23 µg/mL). The MIC ([3]; E. faecalis ERV103 HM-934) was 4 µM (≈ 2.11 µg/mL), the MBC [3, 7] was 64 µM (≈ 33.8 µg/mL) and the MIC [3, 7] was 4 µM (≈ 2.11 µg/mL). It also gave an MBC ([3]; E. faecalis R712 HM-335) of 4 µM (≈ 2.11 µg/mL), an MIC ([3]; E. faecalis R712 HM-335) of 4 µM (≈ 2.11 µg/mL) and an MBC ([3]; E. faecalis S613 HM-334) of 8 µM (≈ 4.23 µg/mL). For the same compound, the MIC ([3]; E. faecalis S613 HM-334) was 4 µM (≈ 2.11 µg/mL), the MBC ([3]; E. faecalis TX0104 HM-201) was 8 µM (≈ 4.23 µg/mL) and the MIC ([3]; E. faecalis TX0104 HM-201) was 4 µM (≈ 2.11 µg/mL). The MIC (P. aeruginosa; ATCC9721) was > 128 µM, the MIC (P. aeruginosa; ATCC15442) was > 128 µM and the MBC (B. licheniformis; [8]) was 2 µM (≈ 1.06 µg/mL). The MIC (B. licheniformis; [8]) was 2 µM (≈ 1.06 µg/mL), the MBC (B. licheniformis; [9]) was 4 µM (≈ 2.11 µg/mL) and the MIC (B. licheniformis; [9]) was 4 µM (≈ 2.11 µg/mL). For the same compound, the MIC (Pseudomonas aeruginosa [4]; Pseudomonas aeruginosa ATCC 9721, PMBN (+) 4 μg/mL, read-out: MIC) was >64 µM, the MIC (Pseudomonas aeruginosa [4]; Pseudomonas aeruginosa, ATCC9721) was > 128 µM and the MBC ([5]; E. faecium E417 HM-965) was 64 µM (≈ 33.8 µg/mL). The MIC ([5]; E. faecium E417 HM-965) was 4 µM (≈ 2.11 µg/mL), the MBC ([5]; E. faecium E1071 NR-28978) was > 64 µM and the MIC ([5]; E. faecium E1071 NR-28978) was 8 µM (≈ 4.23 µg/mL). For the same compound, the MBC [5, 10] was 64 µM (≈ 33.8 µg/mL), the MIC [5, 10] was 4 µM (≈ 2.11 µg/mL) and the MBC [5, 11] was 64 µM (≈ 33.8 µg/mL). The MIC [5, 11] was 8 µM (≈ 4.23 µg/mL), the MBC [5, 12] was 64 µM (≈ 33.8 µg/mL) and the MIC [5, 12] was 4 µM (≈ 2.11 µg/mL). For the same compound, the MIC (Pseudomonas aeruginosa [6]; Pseudomonas aeruginosa ATCC 921, colistin (+) […], read-out: MIC) was >64 µM, the MIC (Pseudomonas aeruginosa [6]; Pseudomonas aeruginosa, ATCC921) was > 128 µM and the MIC (Clostridium difficile; C. difficile HM-88) was 2 µM (≈ 1.06 µg/mL). It also gave an MIC (Clostridium difficile; C. difficile HM-745) of 1 µM (≈ 0.528 µg/mL), an MIC (Clostridium difficile; C. difficile HM-746) of 2 µM (≈ 1.06 µg/mL) and an MIC (Clostridium difficile; C. difficile Isolate-1 NR-13427) of 2 µM (≈ 1.06 µg/mL). The MIC (Clostridium difficile; C. difficile Toxigenic Strain P8 NR-32888) was 4 µM (≈ 2.11 µg/mL), the MIC (Acinetobacter baumannii; Acinetobacter baumannii ATCC BAA747, PMBN (+) 4 μg/mL, read-out: MIC) was >64 µM and the MIC (Acinetobacter baumannii; Acinetobacter baumannii ATCC BAA19606, PMBN (+) 4 μg/mL, read-out: MIC) was >64 µM. For the same compound, the MIC (Acinetobacter baumannii; Acinetobacter baumannii, ATCCBAA747) was > 128 µM and the MIC (Acinetobacter baumannii; Acinetobacter baumannii, ATCCBAA19606) was > 128 µM.

From paper PMC5053523, “In Vitro Antibacterial Activity of Rhodanine Derivatives against Pathogenic Clinical Isolates” (PLoS ONE, 2016)
